Measured values from US8952024B2, “Herbicidal pyrimidone derivatives” (E I du Pont de Nemours and Company, priority 2009, dated 2015).

How the values were obtained:
Assay type in all cases: in vivo
[1] = system: blackgrass (Alopecurus myosuroides); assay: Test B pre-/postemergence plant response
How it was run: (§1)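 Ratings reflect visual comparison with untreated controls 13 to 15 days after application, from 0 (no effect) to 100 (complete control). Application was preemergence to seeded loam/sand soil or postemergence to 1- to 4-leaf plants, with compound in a non-phytotoxic, surfactant-containing solvent.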

[2] = system: kochia (Kochia scoparia); assay: Test B pre-/postemergence plant response; details: Postemergence
How it was run: as §1

[3] = system: wild oat (Avena fatua); assay: Test B pre-/postemergence plant response
How it was run: as §1

[4] = system: velvetleaf (Abutilon theophrasti); assay: Test B pre-/postemergence plant response
How it was run: as §1

[5] = system: cocklebur (Xanthium strumarium); assay: Test B pre-/postemergence plant response
How it was run: as §1

[6] = system: pigweed (Amaranthus retroflexus); assay: Test B pre-/postemergence plant response
How it was run: as §1

[7] = system: lambsquarters (Chenopodium album); assay: Test B pre-/postemergence plant response
How it was run: as §1

[8] = system: Surinam grass (Brachiaria decumbens); assay: Test B pre-/postemergence plant response
How it was run: as §1

[9] = system: soybean (Glycine max); assay: Test B pre-/postemergence plant response
How it was run: as §1

[10] = system: wheat (Triticum aestivum); assay: Test B pre-/postemergence plant response
How it was run: as §1

[11] = system: canarygrass (Phalaris minor); assay: Test B postemergence plant response; details: Postemergence
How it was run: (§2)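 Plants grown in peat/vermiculite medium were sprayed postemergence at 2–18 cm height (1- to 4-leaf stage). After 13–15 days in the greenhouse, response was rated visually against untreated controls on a 0–100 scale (0 no effect, 100 complete control).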

[12] = system: chickweed (Stellaria media); assay: Test B postemergence plant response; details: Postemergence
How it was run: as §2

[13] = system: windgrass (Apera spica-venti); assay: Test B postemergence plant response; details: Postemergence
How it was run: as §2

[14] = Postemergence, 31 g ai/ha, 0 to 100 scale (0 no effect, 100 complete control)
[15] = Postemergence, 125 g ai/ha, scale 0 to 100 (0 no effect, 100 complete control)
[16] = Postemergence, 250 g ai/ha, scale 0 to 100 (0 no effect, 100 complete control), 13 to 15 days
[17] = 31 g ai/ha, 0 to 100 scale (0 no effect, 100 complete control)
[18] = 125 g ai/ha, scale 0 to 100 (0 no effect, 100 complete control)
[19] = 250 g ai/ha, scale 0 to 100 (0 no effect, 100 complete control), 13 to 15 days
[20] = Postemergence, 62 g ai/ha, scale 0 to 100 (0 no effect, 100 complete control)
[21] = Preemergence, 31 g ai/ha, scale 0 to 100 (0 no effect, 100 complete control)
[22] = Preemergence, 62 g ai/ha, scale 0 to 100 (0 no effect, 100 complete control)
[23] = Preemergence, 125 g ai/ha, scale 0 to 100, 0 no effect, 100 complete control
[24] = Preemergence, 250 g ai/ha, 0 to 100 scale
[25] = 62 g ai/ha, scale 0 to 100 (0 no effect, 100 complete control)

Cc1ccc(F)cc1-n1c(-c2cccc(Cl)c2)ncc(C(=O)C2=C(O)CCCC2=O)c1=O [Compound 157]
Blackgrass plant response rating (0 to 100 scale) ([1]; 62 g ai/ha, postemergence, 0 is no effect, 100 is complete control, 13 to 15 days): 5
Plant response rating, Blackgrass [1, 14]: 0
Plant response rating, Blackgrass [1, 15]: 10
Plant response rating, Blackgrass [1, 16]: 40
Plant response rating, Kochia [2, 17]: 0
Plant response rating, Kochia [2, 18]: 10
Plant response rating, Kochia [2, 19]: 45
Plant response rating, Oat, Wild [3, 14]: 30
Plant response rating, Oat, Wild [3, 15]: 60
Plant response rating, Oat, Wild [3, 16]: 70
Plant response rating, Velvetleaf [4, 14]: 100
Plant response rating, Velvetleaf [4, 15]: 100
Plant response rating, Velvetleaf [4, 16]: 100
Plant response rating, Cocklebur [5, 14]: 100
Plant response rating, Cocklebur [5, 15]: 100
Plant response rating, Cocklebur [5, 16]: 100
Plant response rating, Pigweed [6, 14]: 65
Plant response rating, Pigweed [6, 15]: 90
Plant response rating, Pigweed [6, 16]: 98
Plant response rating, Lambsquarters [7, 14]: 98
Plant response rating, Lambsquarters [7, 15]: 100
Plant response rating, Lambsquarters [7, 16]: 100
Plant response rating, Surinam Grass [8, 14]: 75
Plant response rating, Surinam Grass [8, 15]: 98
Plant response rating, Surinam Grass [8, 16]: 100
Plant response rating, Soybean [9, 14]: 95
Plant response rating, Soybean [9, 15]: 100
Plant response rating, Soybean [9, 16]: 100
Plant response rating, Wheat [10, 14]: 0
Plant response rating, Wheat [10, 15]: 20
Plant response rating, Wheat [10, 16]: 30
Plant response rating, Canarygrass [11, 17]: 40
Plant response rating, Canarygrass [11, 18]: 80
Plant response rating, Canarygrass [11, 19]: 90
Plant response rating, Chickweed [12, 17]: 100
Plant response rating, Chickweed [12, 18]: 100
Plant response rating, Chickweed [12, 19]: 100
Plant response rating, Windgrass [13, 17]: 60
Plant response rating, Windgrass [13, 18]: 70
Plant response rating, Windgrass [13, 19]: 80

CCc1ccc(-n2c(-c3ccccc3)ncc(C(=O)C3=C(O)CCCC3=O)c2=O)cc1 [Compound 219]
Plant response rating, Blackgrass [1, 14]: 50
Plant response rating, Blackgrass [1, 20]: 55
Plant response rating, Blackgrass [1, 15]: 55
Plant response rating, Blackgrass [1, 16]: 90
Plant response rating, Blackgrass [1, 21]: 30
Plant response rating, Blackgrass [1, 22]: 35
Plant response rating, Blackgrass [1, 23]: 40
Blackgrass plant response rating [1, 24]: 60
Plant response rating, Kochia [2, 17]: 80
Plant response rating, Kochia [2, 25]: 98
Plant response rating, Kochia [2, 18]: 98
Plant response rating, Kochia [2, 19]: 100
Plant response rating, Oat, Wild [3, 14]: 50
Plant response rating, Oat, Wild [3, 20]: 70
Plant response rating, Oat, Wild [3, 16]: 85
Plant response rating, Oat, Wild [3, 21]: 0
Plant response rating, Oat, Wild [3, 22]: 0
Plant response rating, Oat, Wild [3, 23]: 5
Oat, Wild plant response rating [3, 24]: 40
Plant response rating, Velvetleaf [4, 14]: 85
Plant response rating, Velvetleaf [4, 20]: 90
Plant response rating, Velvetleaf [4, 16]: 98
Plant response rating, Velvetleaf [4, 21]: 0
Plant response rating, Velvetleaf [4, 22]: 75
Plant response rating, Velvetleaf [4, 23]: 90
Velvetleaf plant response rating [4, 24]: 95
Plant response rating, Cocklebur [5, 22]: 75
Cocklebur plant response rating [5, 24]: 85
Plant response rating, Pigweed [6, 14]: 100
Plant response rating, Pigweed [6, 20]: 100
Plant response rating, Pigweed [6, 16]: 100
Plant response rating, Pigweed [6, 21]: 100
Plant response rating, Pigweed [6, 22]: 100
Plant response rating, Pigweed [6, 23]: 100
Pigweed plant response rating [6, 24]: 100
Plant response rating, Lambsquarters [7, 14]: 100
Plant response rating, Lambsquarters [7, 20]: 100
Plant response rating, Lambsquarters [7, 15]: 100
Plant response rating, Lambsquarters [7, 16]: 100
Plant response rating, Lambsquarters [7, 21]: 100
Plant response rating, Lambsquarters [7, 22]: 100
Plant response rating, Lambsquarters [7, 23]: 100
Lambsquarters plant response rating [7, 24]: 100
Plant response rating, Surinam Grass [8, 14]: 10
Plant response rating, Surinam Grass [8, 20]: 25
Plant response rating, Surinam Grass [8, 16]: 65
Plant response rating, Surinam Grass [8, 21]: 10
Plant response rating, Surinam Grass [8, 22]: 10
Plant response rating, Surinam Grass [8, 23]: 45
Surinam Grass plant response rating [8, 24]: 100
Plant response rating, Soybean [9, 14]: 95
Plant response rating, Soybean [9, 20]: 98
Plant response rating, Soybean [9, 16]: 100
Plant response rating, Soybean [9, 21]: 0
Plant response rating, Soybean [9, 22]: 0
Plant response rating, Soybean [9, 23]: 65
Soybean plant response rating [9, 24]: 75
Plant response rating, Wheat [10, 14]: 40
Plant response rating, Wheat [10, 20]: 50
Plant response rating, Wheat [10, 16]: 50
Plant response rating, Wheat [10, 21]: 0
Plant response rating, Wheat [10, 22]: 0
Plant response rating, Wheat [10, 23]: 0
Wheat plant response rating [10, 24]: 0
Plant response rating, Canarygrass [11, 17]: 35
Plant response rating, Canarygrass [11, 25]: 55
Plant response rating, Canarygrass [11, 18]: 55
Plant response rating, Canarygrass [11, 19]: 55
Plant response rating, Chickweed [12, 17]: 100
Plant response rating, Chickweed [12, 25]: 100
Plant response rating, Chickweed [12, 18]: 100
Plant response rating, Chickweed [12, 19]: 100
Plant response rating, Windgrass [13, 17]: 35
Plant response rating, Windgrass [13, 25]: 40
Plant response rating, Windgrass [13, 19]: 85
